US20260001914A1, “MACROCYCLIC PEPTIDES TARGETING KRAS” (Merck Sharp & Dohme LLC, priority 2022, published 2026)
*1 amine or outer side, *2 acyl side, *3 side chain or, on linkers, in order; H or OH if unused. Where a SMILES comes first, the peptide text is derived from it. Bridges are numbered along the chain shown (N, C = ends). [ ]: non-standard residue; d: D form. The star is where a group is joined. X48 = CCCC[C@@H](/C=C\[C@@H](Cc1cccnc1)C(=O)[*:2])N[*:1]; Phe(4-guanidino) = N=C(N)Nc1ccc(C[C@H](N)C(=O)O)cc1; Ala(pyrimidin-5-yl) = N[C@@H](Cc1cncnc1)C(=O)O; X6 = O=C([C@H](Cc1cnn(C2COC2)c1)N[*:1])[*:2]; NMe3Pal(5-F) = CN[C@@H](Cc1cncc(F)c1)C(=O)O; NMePhe(3-Me) = CN[C@@H](Cc1cccc(C)c1)C(=O)O; X37 = O=C([C@H](Cc1cnc(F)cc1F)N[*:1])[*:2]; 3Pal(6-OMe) = COc1ccc(C[C@H](N)C(=O)O)cn1; NMeArg(Me) = CNC(=N)NCCC[C@H](NC)C(=O)O; X11 = CC(C)(F)CC[C@H](N[*:1])C(=O)[*:2]; X15 = O=C([C@H](Cc1cnccc1F)N[*:1])[*:2]; Nle(5,5-F2) = CC(F)(F)CC[C@H](N)C(=O)O; Phe(2-CN) = N#Cc1ccccc1C[C@H](N)C(=O)O; Phe(2-F) = N[C@@H](Cc1ccccc1F)C(=O)O; NMe3Pal = CN[C@@H](Cc1cccnc1)C(=O)O; X1 = O=C(C12CC(CN[*:1])(C1)C2)[*:2]; NMeAad = CN[C@@H](CCCC(=O)O)C(=O)O; X38 = NC(=O)CCCN(CC(=O)[*:2])[*:1]; Ala(cPr) = N[C@@H](CC1CC1)C(=O)O; NMeF = CN[C@@H](Cc1ccccc1)C(=O)O; PhLac = O=C(O)[C@@H](O)Cc1ccccc1; 3Pal = N[C@@H](Cc1cccnc1)C(=O)O; Ahp(2) = CCCCC[C@H](N)C(=O)O; Cba = N[C@@H](CC1CCC1)C(=O)O; hLeu = CC(C)CC[C@H](N)C(=O)O; αMeC = C[C@](N)(CS)C(=O)O; NMeA = CN[C@@H](C)C(=O)O; Nle = CCCC[C@H](N)C(=O)O; Pyrrolidide = C1CCN(*)C1

target: phosphorylation levels of ERK1/2 in AsPC-1 (homozygous KRAS-G12D) cells (Homo sapiens, UniProt P01116, G12D); assay: Cellular phospho-ERK assay in AsPC-1 cells (Alpha Screen), assay medium without fetal bovine serum; assay type: cell-based; settings: phospho-ERK AlphaScreen, 18 h;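 further: signal taken as phospho-ERK over total ERK per well, both detected in one multiplex bead assay, EC50 from four-parameter logistic fit of dose-response curves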
Sequence (P01116 1-186 G12D): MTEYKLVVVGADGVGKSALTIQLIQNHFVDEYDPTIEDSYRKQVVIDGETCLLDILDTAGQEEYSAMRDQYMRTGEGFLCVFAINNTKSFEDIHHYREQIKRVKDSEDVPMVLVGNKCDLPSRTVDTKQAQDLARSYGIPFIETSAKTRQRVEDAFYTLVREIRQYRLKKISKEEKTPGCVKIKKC
Protocol: Assay plate was incubated at 37° C. 5% CO2 for the indicated length of time. […] Phosphorylated ERK and total ERK levels were detected by Alpha SureFire Ultra Multiplex pERK kit (PerkinElmer MPSU-PTERK) using 5 μL, acceptor bead mix and 5 μL donor bead mix, both prepared following the manufacturer's protocol. Plates were sealed using aluminum sealing tape (Costar 07-200-683) during incubation at ambient temperature with constant shaking at 300 rpm for 1 h (both acceptor and donor). Assay plates were read on a Envision Xcite Multilabel Reader (PerkinElmer 1040900) at ambient temperature, with emission at 535 nm (Total ERK) and emission at 615 nm (Phospho ERK). Ratio of pERK vs total ERK in each well was used as the final readout. Dose response curves and EC50 were analyzed using a 4-parameter logistic equation in GraphPad Prism software.

Compound | EC50 [µM]
CCCCC[C@@H]1NC(=O)[C@H](Cc2ccccc2C#N)NC(=O)[C@H](CC2CCC2)NC(=O)[C@H](Cc2cccnc2)NC(=O)[C@H](CCCNC(=N)N)NC(=O)[C@H](Cc2ccccc2)NC(=O)CSC[C@@](C)(C(N)=O)NC(=O)[C@H](Cc2ccccc2)N(C)C1=O [compound 375, cyclo(F-R-3Pal-cBuA-Phe2CN-Ahp-NMeF-aMeCl-ClAc)] ({CH2CO}-FR[3Pal][Cba][Phe(2-CN)][Ahp(2)][NMeF][αMeC]-NH2; thioether N-8) | > 50.8
C[C@H]1C(=O)N[C@@H](Cc2cnn(C3COC3)c2)C(=O)N[C@@H](CC2CC2)C(=O)N[C@@H](Cc2ccccc2F)C(=O)N[C@@H](CCC(C)(F)F)C(=O)N(C)[C@@H](Cc2ccccc2)C(=O)NCC23CC(C2)(C3)C(=O)O[C@@H](Cc2ccccc2)C(=O)N1C [compound 291, cyclo(FLac-NMcA-AlaPyzlOx-cPrA-Phe2F-Nle3F2-NMeF-amBCP)] (cyclo([Ala(cPr)][Phe(2-F)][Nle(5,5-F2)][NMeF][X1][PhLac][NMeA][X6])) | 3.25
CCCC[C@@H]1NC(=O)[C@H](Cc2cncnc2)NC(=O)[C@H](C)N(C)C(=O)[C@H](Cc2ccccc2)OC(=O)C23CC(CNC(=O)[C@H](Cc4cccc(C)c4)N(C)C(=O)[C@H](CCCC)NC(=O)[C@H](Cc4ccccc4F)NC1=O)(C2)C3 [compound 172, cyclo(FLac-NMeA-PyrimAla-Nle-Phe2F-Nle-NMePhe3Me-amBCP)] (cyclo([NMeA][Ala(pyrimidin-5-yl)][Nle][Phe(2-F)][Nle][NMePhe(3-Me)][X1][PhLac])) | 0.256
CC(C)CC[C@@H]1NC(=O)[C@H](Cc2ccccc2F)NC(=O)[C@H](CC2CC2)NC(=O)[C@H](Cc2cnn(C3COC3)c2)NC(=O)[C@H](C)N(C)C(=O)[C@H](Cc2ccccc2)OC(=O)C23CC(CNC(=O)[C@H](Cc4cccnc4)N(C)C1=O)(C2)C3 [compound 301, cyclo(FLac-NMeA-AlaPyz1Ox-cPrA-Phe2F-hL-NMe3Pal-amBCP)] (cyclo([Ala(cPr)][Phe(2-F)][hLeu][NMe3Pal][X1][PhLac][NMeA][X6])) | 39.5
CCCCC[C@@H]1NC(=O)[C@H](Cc2ccc(OC)cc2)NC(=O)[C@H](CC2CCC2)NC(=O)[C@H](Cc2ccc(N3CCC[C@H]3CN)cc2)NC(=O)[C@H](CCCNC(=N)N)NC(=O)[C@H](Cc2ccccc2)NC(=O)CSC[C@@](C)(C(N)=O)NC(=O)[C@H](Cc2ccccc2)N(C)C1=O [compound 392, cyclo(F-R-Phe4SamPyrr-cBuA-TyrOMe-Ahp-NMeF-aMeCl-ClAc)] | > 50.8
CCCC[C@@H]1NC(=O)[C@H](Cc2cccnc2)NC(=O)[C@H](CCCC(=O)N(C)C)N(C)C(=O)[C@H](Cc2ccccc2)OC(=O)C23CC(CNC(=O)[C@H](Cc4cccnc4)N(C)C(=O)[C@H](CCCC)NC(=O)[C@H](Cc4ccccc4F)NC1=O)(C2)C3 [compound 408, cyclo(FLac-hQdm-3Pal-Nle-Phe2F-Nle-NMe3Pal-amBCP)] (cyclo([3Pal][Nle][Phe(2-F)][Nle][NMe3Pal][X1][PhLac][NMeAad](NMe2))) | > 50.8
CCCCC[C@@H]1NC(=O)[C@H](Cc2ccc(OC)cc2)NC(=O)[C@H](CC2CCC2)NC(=O)[C@H](Cc2ccc(C)nc2)NC(=O)[C@H](CCCNC(=N)N)NC(=O)[C@H](Cc2ccccc2)NC(=O)CSC[C@@](C)(C(N)=O)NC(=O)[C@H](Cc2ccccc2)N(C)C1=O [compound 364, cyclo(F-R-4Me3Pal-cBuA-TyrOMe-Ahp-NMeF-aMeCl-ClAc)] | > 50.8
CC(C)CC[C@@H]1NC(=O)[C@H](Cc2cnc(F)cc2F)NC(=O)[C@H](CC2CC2)NC(=O)[C@H](Cc2cncnc2)NC(=O)[C@H](C)N(C)C(=O)[C@H](Cc2ccccc2)OC(=O)C23CC(CNC(=O)[C@H](Cc4ccccc4)N(C)C1=O)(C2)C3 [compound 294, cyclo(FLac-NMeA-PyrimAla-cPrA-3Pal46F2-hL-NMeF-amBCP)] (cyclo([Ala(cPr)][X37][hLeu][NMeF][X1][PhLac][NMeA][Ala(pyrimidin-5-yl)])) | 4.66
CCCCC[C@@H]1NC(=O)[C@H](Cc2ccc(OC)cc2)NC(=O)[C@H](CC2CCC2)NC(=O)[C@H](Cc2ccoc2)NC(=O)[C@H](CCCNC(=N)N)NC(=O)[C@H](Cc2ccccc2)NC(=O)CSC[C@@](C)(C(N)=O)NC(=O)[C@H](Cc2ccccc2)N(C)C1=O [compound 371, cyclo(F-R-Ala3Fur-cBuA-TyrOMe-Ahp-NMeF-aMeCl-ClAc)] | > 50.8
Cc1cccc(C[C@H]2C(=O)NCC34CC(C3)(C4)C(=O)O[C@@H](Cc3ccccc3)C(=O)N(C)[C@@H](C)C(=O)N[C@@H](Cc3cncnc3)C(=O)N[C@@H](CC3CC3)C(=O)N[C@@H](Cc3cnccc3F)C(=O)N[C@@H](CCC(C)C)C(=O)N2C)c1 [compound 278, cyclo(FLac-NMeA-PyrimAla-cPrA-3Pal6F-hL-NMePhe3Me-amBCP)] (cyclo([Ala(cPr)][X15][hLeu][NMePhe(3-Me)][X1][PhLac][NMeA][Ala(pyrimidin-5-yl)])) | 4
CCCC[C@@H]1NC(=O)[C@H](Cc2cccnc2)NC(=O)[C@H](C)N(C)C(=O)[C@H](Cc2ccccc2)OC(=O)CSC[C@@](C)(C(N)=O)NC(=O)[C@H](Cc2cccnc2)N(C)C(=O)[C@H](CCCC)NC(=O)[C@H](Cc2ccccc2F)NC1=O [compound 398, cyclo(FLac-NMeA-3Pal-Nlc-Phe2F-Nle-NMe3Pal-aMeCl-ClAc)] ({CH2CO}-[PhLac][NMeA][3Pal][Nle][Phe(2-F)][Nle][NMe3Pal][αMeC]-NH2; thioether N-8) | 40.7
CCCC[C@@H]1NC(=O)[C@H](Cc2cccnc2)NC(=O)[C@H](CCCNC(=N)N)NC(=O)[C@H](Cc2ccccc2)NC(=O)CSC[C@@](C)(C(N)=O)NC(=O)[C@H](Cc2ccccc2)N(C)C(=O)[C@H](CCCC)NC(=O)[C@H](Cc2ccccc2F)NC1=O [compound 160, cyclo(F-R-3Pal-Nle-Phe2F-Nle-NMeF-aMeCl-ClAc)] ({CH2CO}-FR[3Pal][Nle][Phe(2-F)][Nle][NMeF][αMeC]-NH2; thioether N-8) | > 50.8
CCCCC[C@@H]1NC(=O)[C@H](CC(=O)N2CCCC2)NC(=O)[C@H](CC2CCC2)NC(=O)[C@H](Cc2cccnc2)NC(=O)[C@H](CCCNC(=N)N)NC(=O)[C@H](Cc2ccccc2)NC(=O)CSC[C@@](C)(C(N)=O)NC(=O)[C@H](Cc2ccccc2)N(C)C1=O [compound 373, cyclo(F-R~3Pal-cBuA-PyD-Ahp-NMeF-aMeCl-ClAc)] ({CH2CO}-FR[3Pal][Cba]D(Pyrrolidide)[Ahp(2)][NMeF][αMeC]-NH2; thioether N-8) | > 50.8
CCCCC[C@@H]1NC(=O)[C@H](Cc2ccc(OC)cc2)NC(=O)[C@H](CC2CCC2)NC(=O)[C@H](Cc2ccc(OC)nc2)NC(=O)[C@H](CCCNC(=N)N)NC(=O)[C@H](Cc2ccccc2)NC(=O)CSC[C@@](C)(C(N)=O)NC(=O)[C@H](Cc2ccccc2)N(C)C1=O [compound 365, cyclo(F-R-40Me3Pal-cBuA-TyrOMe-Ahp-NMeF-aMeCl-ClAc)] ({CH2CO}-FR[3Pal(6-OMe)][Cba]Y(Me)[Ahp(2)][NMeF][αMeC]-NH2; thioether N-8) | > 50.8
CCCC[C@@H]1NC(=O)[C@H](Cc2cncnc2)NC(=O)[C@H](C)N(C)C(=O)[C@H](Cc2ccccc2)OC(=O)C23CC(CNC(=O)[C@H](Cc4ccccc4)N(C)C(=O)[C@H](CCCC)NC(=O)[C@H](Cc4ccccc4F)NC1=O)(C2)C3 [compound 230, cyclo(FLac-NMeA-PyrimAla-Nle-Phe2F-Nle-NMeF-amBCP)] (cyclo([NMeA][Ala(pyrimidin-5-yl)][Nle][Phe(2-F)][Nle][NMeF][X1][PhLac])) | 0.59
CCCCC[C@@H]1NC(=O)[C@H](Cc2ccc(OC)cc2)NC(=O)[C@H](CC2CCC2)NC(=O)[C@H](Cc2ccn(C)n2)NC(=O)[C@H](CCCNC(=N)N)NC(=O)[C@H](Cc2ccccc2)NC(=O)CSC[C@@](C)(C(N)=O)NC(=O)[C@H](Cc2ccccc2)N(C)C1=O [compound 362, cyclo(F-R-MePyzAla-cBuA-TyrOMe-Ahp-NMeF-aMeCl-ClAc)] | > 50.8
CCCC[C@H]1/C=C\[C@@H](Cc2cccnc2)C(=O)NCC23CC(C2)(C3)C(=O)O[C@@H](Cc2ccccc2)C(=O)N(C)[C@@H](C)C(=O)N[C@@H](Cc2cncnc2)C(=O)N[C@@H](CCCC)C(=O)N[C@@H](Cc2ccccc2F)C(=O)N1 [SEQ ID NO: 137, cyclo(FLac-NMeA- PyrimAla-Nle-Phe2F- Nlecalken3Pal-amBCP)] (cyclo([NMeA][Ala(pyrimidin-5-yl)][Nle][Phe(2-F)][X48][X1][PhLac])) | 11.2
C[C@H]1C(=O)N[C@@H](Cc2cccnc2)C(=O)N[C@@H](CC2CC2)C(=O)N[C@@H](Cc2ccccc2F)C(=O)N[C@@H](CCC(C)(C)F)C(=O)N(C)[C@@H](Cc2cncc(F)c2)C(=O)NCC23CC(C2)(C3)C(=O)O[C@@H](Cc2ccccc2)C(=O)N1C [compound 284, cyclo(FLac-NMeA-3Pal-cPrA-Phe2F-hL3F-NMe3Pal5F-amBCP)] (cyclo([3Pal][Ala(cPr)][Phe(2-F)][X11][NMe3Pal(5-F)][X1][PhLac][NMeA])) | 4.59
CCCC[C@@H]1NC(=O)[C@H](Cc2ccccc2)NC(=O)[C@H](C)N(C)C(=O)[C@H](Cc2ccccc2)OC(=O)C23CC(CNC(=O)[C@H](Cc4ccccc4)N(C)C(=O)[C@H](CCCC)NC(=O)[C@H](Cc4ccccc4F)NC1=O)(C2)C3 [compound 305, cyclo(FLac-NMeA-F-Nle-Phe2F-Nle-NMeF-amBCP)] (cyclo(F[Nle][Phe(2-F)][Nle][NMeF][X1][PhLac][NMeA])) | > 50.8
CCCCC[C@@H]1NC(=O)[C@H](Cc2ccc(OC)cc2)NC(=O)[C@H](CC2CCC2)NC(=O)[C@H](Cc2ccc(NC(=N)N)cc2)NC(=O)CN(CCCC(N)=O)C(=O)[C@H](Cc2ccccc2)NC(=O)CSC[C@@](C)(C(N)=O)NC(=O)[C@H](Cc2ccccc2)N(C)C1=O [compound 386, cyclo(F-Cmpg-Phe4Gn-cBuA-TyrOMe-Abp-NMeF-aMeCl-ClAc)] ({CH2CO}-F[X38][Phe(4-guanidino)][Cba]Y(Me)[Ahp(2)][NMeF][αMeC]-NH2; thioether N-8) | > 50.8
CCCCC[C@@H]1NC(=O)[C@H](Cc2ccc(OC)cc2)NC(=O)[C@H](CC2CCC2)NC(=O)[C@H](Cc2ccc(NC(=N)N)cc2)NC(=O)[C@H](CCCNC(=N)NC)N(C)C(=O)[C@H](Cc2ccccc2)NC(=O)CSC[C@@](C)(C(N)=O)NC(=O)[C@H](Cc2ccccc2)N(C)C1=O [compound 380, cyclo(F-NMeArgMe-Phe4Gn-cBuA-TyrOMe-Abp-NMeF-aMeCl-ClAc)] ({CH2CO}-F[NMeArg(Me)][Phe(4-guanidino)][Cba]Y(Me)[Ahp(2)][NMeF][αMeC]-NH2; thioether N-8) | > 50.8
